Experimental data: US12729458B2, “Discovery and evolution of biologically active metabolites” (The Regents of the University of Colorado, a Body Corporate, priority 2020, dated 2026)
Entries after “also recorded” stand apart in the source; their conditions may differ. Read-outs that look alike come from different tables or passages of the source.

Assays:
Assay type in all cases: biochemical, H. sapiens
TCPTP1-281 = assay: pNPP hydrolysis by TC-PTP lacking the α7-equivalent region; conditions: for change in PTP1B/TC-PTP selectivity on removal of the α7 helix (or equivalent) from both enzymes: PTP1B1-281 and TCPTP1-281 vs full constructs; for Ki: TCPTP1-281
Protocol: (§1) Enzyme kinetics. To examine terpenoid-mediated inhibition, we measured PTP-catalyzed hydrolysis of p-nitrophenyl phosphate (pNPP) or 4-methylumbelliferyl phosphate (4-MUP, used when KM for pNPP was large) in the presence of various concentrations of terpenoids. Each reaction included PTP (0.05 μM PTP1B/TCPTP or 0.1 μM SHP1/SHP2 in 50 mM HEPES, 0.5 mM TCEP, 50 μg/ml BSA), pNPP (0.33, 0.67, 2, 5, 10, and 15 mM) or 4-MUP (0.13, 0.27, 0.8, 2.27, 2.93, 4.53, 7.07, and 8 mM), inhibitor (with concentrations listed in the figures), buffer (50 mM HEPES pH=7.3, 50 μg/ml BSA), and DMSO at 10% v/v. We monitored the formation of p-nitrophenol by measuring absorbance at 405 nm every 10 seconds for 5 minutes on a SpectraMax M2 plate reader and the formation of 4-methylumbelliferyl by measuring fluorescence at 450 nm (370 nm ex, 435 nm cutoff, medium gain).
(§2) We used a custom MATLAB script to process all raw kinetic data. This script removed all concentration values that fell outside of either (i) the range of our standard curve (absorbance/fluorescence vs. μM; FIG. 39) or (ii) the initial rate regime (>10% of the pNPP or 4-MUP concentration used in the assay). When this step reduced kinetic dataset to fewer than ten points, we re-measured those datasets to collect at least ten. We fit final datasets, in turn, with a linear regression model (using Matlab's backslash operator).
(§3) We evaluated kinetic models in three steps: (i) We fit initial-rate measurements collected in the absence and presence of inhibitors to Michaelis-Menten and inhibition models, respectively (here, we used the nlinfit and fminsearch functions from MATLAB; TABLE 12). (ii) We used an F-test to compare the mixed model to the single-parameter model with the least sum squared error (here, we used the fedf function from MATLAB to assign p-values), and we accepted the mixed model when p<0.05. (iii) We used the Akaike's Information Criterion (AIC) to compare the best-fit single parameter model to each alternative single parameter model, and we accepted the “best-fit” model when the difference in AIC (Δi) exceed 5 for all comparisons.^78 We note: For AD, AB, and (+) 1-(10),4-cadinadiene this criterion was not met; both noncompetitive and uncompetitive models, however, yielded indistinguishable ICso's.
(§4) We used the MATLAB function “nlparci” to determine the confidence intervals of kinetic parameters, and we propagated those intervals to estimate corresponding confidence intervals for each IC50.

[1] = molecular target: T1, PTP1B1-281 (PTP1B282 in FIG. 12) (Homo sapiens, UniProt P18031); assay: pNPP hydrolysis by PTP1B lacking the α7 helix; conditions: for Ki: PTP1B1-281
T1 construct: made in house; host or cells: E. coli BL21 (DE3)
T1 sequence (P18031 1-281): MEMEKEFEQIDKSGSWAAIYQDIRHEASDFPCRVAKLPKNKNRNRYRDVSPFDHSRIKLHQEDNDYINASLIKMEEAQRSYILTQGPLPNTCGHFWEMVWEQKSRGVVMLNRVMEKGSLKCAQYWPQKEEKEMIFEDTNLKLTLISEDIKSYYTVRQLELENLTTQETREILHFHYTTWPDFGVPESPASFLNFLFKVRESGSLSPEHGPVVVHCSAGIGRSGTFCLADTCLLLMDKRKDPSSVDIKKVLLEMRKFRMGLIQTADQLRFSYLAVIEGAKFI
Protocol: as §1, §2, §3, §4

[2] = system: TC-PTP (TCPTP1-317; TCPTP292 in FIG. 12); assay: TC-PTP-catalyzed hydrolysis of pNPP in the presence of terpenoids; conditions: PTP1B321 vs TCPTP292 / TC-PTP, pNPP
Protocol: as §1, §2, §3, §4

[3] = molecular target: T2, TC-PTP (TCPTP1-317; TCPTP292 in FIG. 12) (Mus musculus, UniProt Q06180); assay: as above; conditions: TCPTP1-317
T2 construct: His-tag; made in house; host or cells: E. coli BL21 (DE3), pET16b
T2 sequence (Q06180 1-317): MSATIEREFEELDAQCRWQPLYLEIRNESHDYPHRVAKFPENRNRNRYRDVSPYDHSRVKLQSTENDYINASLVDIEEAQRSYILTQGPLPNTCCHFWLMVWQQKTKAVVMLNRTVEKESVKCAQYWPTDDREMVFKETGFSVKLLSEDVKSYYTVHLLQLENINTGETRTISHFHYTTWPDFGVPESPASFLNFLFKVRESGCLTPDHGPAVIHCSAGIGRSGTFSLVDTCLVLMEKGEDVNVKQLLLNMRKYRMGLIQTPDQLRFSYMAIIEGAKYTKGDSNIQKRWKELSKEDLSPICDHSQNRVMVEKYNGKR
Protocol: as §1, §2, §3, §4

SHP2 (SHP2223-565) = molecular target: T3, SHP2 (SHP2223-565) (Homo sapiens, UniProt Q06124); assay: SHP2-catalyzed hydrolysis of 4-MUP in the presence of terpenoids; conditions: for Ki: SHP2223-565
T3 construct: made in house; host or cells: E. coli BL21 (DE3)
T3 sequence (Q06124 223-565 limits assumed): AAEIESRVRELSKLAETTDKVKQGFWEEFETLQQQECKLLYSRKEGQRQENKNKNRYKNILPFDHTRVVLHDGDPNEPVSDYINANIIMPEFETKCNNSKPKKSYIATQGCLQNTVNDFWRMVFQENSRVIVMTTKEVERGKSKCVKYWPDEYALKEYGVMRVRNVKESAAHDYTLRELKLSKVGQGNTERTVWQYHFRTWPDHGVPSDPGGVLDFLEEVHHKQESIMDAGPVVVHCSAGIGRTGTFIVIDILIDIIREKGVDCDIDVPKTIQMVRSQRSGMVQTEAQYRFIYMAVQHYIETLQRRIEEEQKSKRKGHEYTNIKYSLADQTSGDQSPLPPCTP
Protocol: as §1, §2, §3, §4

[4] = competitive model of inhibition, read-out: Fit par. Ki, competitive model
[5] = mixed model, uncompetitive constant, read-out: Fit par. Ki,u, mixed model
[6] = noncompetitive model of inhibition, read-out: Fit par. Ki, noncompetitive model
[7] = uncompetitive model of inhibition, read-out: Fit par. Ki, uncompetitive model
[8] = mixed model, competitive constant, read-out: Fit par. Ki,c, mixed model

| SMILES | Ki (TCPTP1-281; [4]) | Ki (TCPTP1-281; [5]) | Ki (TCPTP1-281; [6]) | Ki (TCPTP1-281; [7]) | Ki [1, 4] | Ki [1, 8] | Ki [1, 5] | Ki [1, 6] | Ki [1, 7] | potency against PTP1B relative to TC-PTP (selectivity from IC50's) [2] | Ki [3, 5] | Ki [3, 6] | Ki [3, 7] | further results |
| --- | --- | --- | --- | --- | --- | --- | --- | --- | --- | --- | --- | --- | --- | --- |
| C=C(C)[C@@H]1CC[C@@H](C)[C@@H]2CCC(C)=C[C@@H]21 [amorphadiene] | 87.2 µM | 356 µM | 400 µM | 356 µM | 37.9 µM | 157 µM | 271 µM | 244 µM | 210 µM | ~ five-fold; also recorded: much more potently | 356 µM | 400 µM | 356 µM | change in PTP1B/TC-PTP selectivity on removal of the α7 helix (or equivalent) from both enzymes (TCPTP1-281; listed as AD): four-fold; also recorded: reduces the selectivity; potency against PTP1B282 (no α7 helix) relative to PTP1B321 ([1]; pNPP, less potent on PTP1B282): ~ four-fold; potency against PTP1B relative to TC-PTP (selectivity from IC50's) ([2]; listed as AD): five- to six-fold; potency against SHP2 relative to PTP1B (SHP2 (SHP2223-565); 4-MUP, less potent on SHP2): three-fold; Ki (SHP2 (SHP2223-565); [4]): 25.1 µM; Ki (SHP2 (SHP2223-565); [8]): 236 µM; Ki (SHP2 (SHP2223-565); [5]): 132 µM; Ki (SHP2 (SHP2223-565); [6]): 146 µM; Ki (SHP2 (SHP2223-565); [7]): 117 µM |
| CC(C)=CCC=C(C)C1CC=C(C)CC1 (stereo not drawn) [α-bisabolene] | 13.7 µM | 69.3 µM | 76.2 µM | 69.2 µM | 6.51 µM | 39 µM | 47.7 µM | 46.3 µM | 40 µM | much more potently | 69.3 µM | 76.2 µM | 69.2 µM | change in PTP1B/TC-PTP selectivity on removal of the α7 helix (or equivalent) from both enzymes (TCPTP1-281; listed as AB): insensitive and not; Ki (TCPTP1-281; [8]): 3610 µM; potency against PTP1B relative to TC-PTP (selectivity from IC50's) ([2]; listed as AB): five- to six-fold; Ki [3, 8]: 3610 µM; inhibition of SHP2 (SHP2 (SHP2223-565); 4-MUP): low potency; % inhibition of SHP2 (SHP2 (SHP2223-565); at the solubility limit, 4-MUP): ≤ 25% |
